The experiment concerns the target T1, yeast topoisomerase II (yTOPO II) (Saccharomyces cerevisiae, UniProt P06786).
T1 construct: gene TOP2; purified enzyme from the Inspiralis yeast topoisomerase II relaxation assay kit
T1 sequence (P06786 1-1428): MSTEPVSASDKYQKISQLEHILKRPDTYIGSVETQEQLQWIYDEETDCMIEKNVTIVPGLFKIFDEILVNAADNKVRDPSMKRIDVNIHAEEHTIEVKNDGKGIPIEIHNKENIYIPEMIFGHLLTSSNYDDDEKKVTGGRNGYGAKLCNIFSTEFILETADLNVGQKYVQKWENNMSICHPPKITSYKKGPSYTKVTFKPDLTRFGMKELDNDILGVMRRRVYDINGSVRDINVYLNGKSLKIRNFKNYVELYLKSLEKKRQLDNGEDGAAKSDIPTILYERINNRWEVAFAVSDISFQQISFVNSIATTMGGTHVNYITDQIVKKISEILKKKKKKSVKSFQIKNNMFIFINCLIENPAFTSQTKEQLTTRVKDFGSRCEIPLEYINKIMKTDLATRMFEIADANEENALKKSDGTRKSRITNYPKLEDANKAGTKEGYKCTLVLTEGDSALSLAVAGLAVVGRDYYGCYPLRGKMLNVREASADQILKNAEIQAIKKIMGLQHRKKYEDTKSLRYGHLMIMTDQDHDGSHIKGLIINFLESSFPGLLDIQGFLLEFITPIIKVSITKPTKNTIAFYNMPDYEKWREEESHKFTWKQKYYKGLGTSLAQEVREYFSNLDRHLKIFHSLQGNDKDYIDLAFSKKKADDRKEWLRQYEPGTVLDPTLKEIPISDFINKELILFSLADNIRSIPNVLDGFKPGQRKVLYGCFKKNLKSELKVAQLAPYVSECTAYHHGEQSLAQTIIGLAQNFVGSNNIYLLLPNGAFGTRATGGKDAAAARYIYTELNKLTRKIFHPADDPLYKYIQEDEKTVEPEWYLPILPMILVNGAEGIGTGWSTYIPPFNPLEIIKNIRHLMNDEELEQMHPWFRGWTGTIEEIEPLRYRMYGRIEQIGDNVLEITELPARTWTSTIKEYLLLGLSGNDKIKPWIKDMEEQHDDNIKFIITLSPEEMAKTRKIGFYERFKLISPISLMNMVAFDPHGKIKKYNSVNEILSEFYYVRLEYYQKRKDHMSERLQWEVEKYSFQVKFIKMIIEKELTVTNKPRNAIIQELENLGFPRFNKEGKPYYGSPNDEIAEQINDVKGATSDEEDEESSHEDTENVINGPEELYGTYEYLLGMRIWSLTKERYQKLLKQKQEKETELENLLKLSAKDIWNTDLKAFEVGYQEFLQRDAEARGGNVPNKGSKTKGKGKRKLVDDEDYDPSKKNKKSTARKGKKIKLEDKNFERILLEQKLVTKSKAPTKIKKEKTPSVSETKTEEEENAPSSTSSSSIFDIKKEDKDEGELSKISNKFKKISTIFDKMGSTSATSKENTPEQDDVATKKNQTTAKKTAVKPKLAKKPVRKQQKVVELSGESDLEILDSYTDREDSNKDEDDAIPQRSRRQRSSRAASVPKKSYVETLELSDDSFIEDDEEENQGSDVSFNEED
The experiment can be described thus: plasmid DNA relaxation assay, gel densitometry. The settings on record: for Complete inhibition: supercoiled pBR322 as DNA substrate. It counts as biochemical. The text has this:
plasmid DNA relaxation assay, gel densitometry on yeast topoisomerase II (yTOPO II)

A value given as a limit tells only on which side of the number the result lay.

The IC50 is the midpoint of a concentration-inhibition curve. Read a low IC50 as inhibition by little substance.

With `O=c1c2cc3ccccc3cc2oc2c([N+](=O)[O-])ccc(NCCN3CCCC3)c12` [compound 9, 9], the “Complete inhibition” value (highest concentration limited by solubility) was above 50 µM.

As to `CCN(CC)CCn1nc2c3c(c([N+](=O)[O-])ccc31)Oc1cc3ccccc3cc1-2` [compound 13, 13], the “Complete inhibition” value is above 150 µM.

`CN1CCN(CCCNc2ccc([N+](=O)[O-])c3oc4cc5ccccc5cc4c(=O)c23)CC1` [compound 42, 1-((3-(4-methylpiperazin-1-yl)propyl)amino)-4-nitro-12H-benzo[b]xanthen-12-one] came in with an IC50 of 5.86 ± 1.07 µM.

On to `O=c1c2cc3ccccc3cc2oc2c([N+](=O)[O-])ccc(NCCN3CCOCC3)c12` [compound 44, 1-((2-morpholinoethyl)amino)-4-nitro-12H-benzo[b]xanthen-12-one], for which the IC50 is 5.36 ± 1.22 µM.
